Laboratory results reported in US11052072B2, “Pyrazolo[4,3-C] quinoline derivatives for inhibition of β-glucuronidase” (Kaohsiung Medical University, priority 2015, dated 2021).
Where a name gives a salt, the structure may show the parent alone.

What was measured:
[1] = target: T1, human liver-glucuronidase (hβG) (Homo sapiens, UniProt P08236); experiment: Inhibition of purified recombinant hβG activity (pNPG substrate, OD420); type: biochemical; conditions: 10 μM, purified recombinant hβG, pNPG, means ± S.D. of at least three separate experiments; for remaining activity at 10 µM: read-out: Percent activity of human liver-glucuronidase at 10 μM (%)
T1 sequence (P08236 23-651): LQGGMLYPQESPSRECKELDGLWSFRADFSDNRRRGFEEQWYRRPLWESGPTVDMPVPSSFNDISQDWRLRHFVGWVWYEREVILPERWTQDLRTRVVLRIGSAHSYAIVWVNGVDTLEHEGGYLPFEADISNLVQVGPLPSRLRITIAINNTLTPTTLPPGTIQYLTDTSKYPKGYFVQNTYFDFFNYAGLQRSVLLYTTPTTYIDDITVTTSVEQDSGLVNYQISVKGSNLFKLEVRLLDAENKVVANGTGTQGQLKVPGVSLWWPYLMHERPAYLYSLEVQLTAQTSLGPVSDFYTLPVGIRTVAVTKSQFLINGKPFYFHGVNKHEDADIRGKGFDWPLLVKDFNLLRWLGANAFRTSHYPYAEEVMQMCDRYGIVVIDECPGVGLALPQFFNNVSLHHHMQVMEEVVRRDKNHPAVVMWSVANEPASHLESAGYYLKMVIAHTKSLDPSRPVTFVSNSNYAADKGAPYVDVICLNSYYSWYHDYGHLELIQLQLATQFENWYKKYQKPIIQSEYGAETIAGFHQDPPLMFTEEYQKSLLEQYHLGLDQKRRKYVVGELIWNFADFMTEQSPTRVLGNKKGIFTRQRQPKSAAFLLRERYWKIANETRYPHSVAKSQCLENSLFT
Protocol: (§1) The pyrazolo[4,3-c]quinoline derivatives were examined for their inhibition against eβG or hβG activity. Purified recombinant eβG or hβG proteins were incubated with serial dilution of the inhibitors, respectively. The βG activity was determined by color development of a βG substrate, pNPG. The hydrolysis product of pNPG, PNP was measured by OD420.

[2] = target: E. coli β-glucuronidase (eβG) (Escherichia coli, UniProt P05804); experiment: Inhibition of purified recombinant eβG activity (pNPG substrate, OD420); type: biochemical; conditions: for remaining activity at 10 µM: read-out: Percent activity of E. coli-glucuronidase at 10 μM (%)
Sequence of E. coli β-glucuronidase (eβG) (P05804 whole entry): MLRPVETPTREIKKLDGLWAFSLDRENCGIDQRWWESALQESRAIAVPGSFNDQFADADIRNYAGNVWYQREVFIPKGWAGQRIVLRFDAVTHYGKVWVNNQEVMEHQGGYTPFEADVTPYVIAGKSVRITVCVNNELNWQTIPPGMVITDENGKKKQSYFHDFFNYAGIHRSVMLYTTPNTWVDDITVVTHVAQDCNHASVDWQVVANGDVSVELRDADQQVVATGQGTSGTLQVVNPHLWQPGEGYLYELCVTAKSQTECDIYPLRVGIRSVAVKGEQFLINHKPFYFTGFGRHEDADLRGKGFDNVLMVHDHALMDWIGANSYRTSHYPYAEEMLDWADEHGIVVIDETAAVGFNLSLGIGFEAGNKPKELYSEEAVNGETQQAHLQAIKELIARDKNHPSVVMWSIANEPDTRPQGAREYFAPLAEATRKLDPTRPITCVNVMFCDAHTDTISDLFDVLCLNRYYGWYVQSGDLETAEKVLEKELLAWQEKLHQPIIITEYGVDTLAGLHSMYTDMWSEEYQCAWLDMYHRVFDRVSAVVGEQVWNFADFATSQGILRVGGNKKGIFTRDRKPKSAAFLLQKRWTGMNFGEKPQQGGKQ
Protocol: as §1

Row | Compound | melting point | remaining activity at 10 µM [1] [%] | remaining activity at 10 µM [2] [%] | Percent activity of human liver-glucuronidase at 10 μM (%) [1] [%] | Percent activity of E. coli-glucuronidase at 10 μM (%) ([2]; 10 μM, purified recombinant eβG, pNPG, means ± S.D. of at least three separate experiments)
1 | Cc1ccc(Nc2nc3cc(F)ccc3c3[nH]nc(N)c23)cc1 (as salt: salt) [Compound 9, 7-Fluoro-N^4-(p-tolyl)-1H-pyrazolo[4,3-c]quinoline-3,4-diamine] | 246 to 247 °C |  |  |  | 
2 | Nc1n[nH]c2c1c(Nc1ccc(Cl)cc1)nc1ccc(Cl)cc12 (as salt: salt) [Compound 10, 8-Chloro-N^4-(4-chlorophenyl)-1H-pyrazolo[4,3-c]quinoline-3,4-diamine] | 270 to 272 °C |  |  |  | 
3 | Cc1ccc(Nc2nc3ccc(Cl)cc3c3[nH]nc(N)c23)cc1 (as salt: salt) [Compound 11, 8-Chloro-N^4-(p-tolyl)-1H-pyrazolo[4,3-c]quinoline-3,4-diamine] | 261 °C |  |  |  | 
4 | CSc1ccc(Nc2nc3ccccc3c3[nH]nc(N)c23)cc1 (as salt: salt) [Compound 20, 3-Amino-4-(4-methylthiophenylamino)-1H-pyrazolo[4,3-c]quinoline] | 269 to 271 °C |  |  |  | 
5 | Nc1n[nH]c2c1c(Nc1ccc([N+](=O)[O-])cc1)nc1ccccc12 (as salt: salt) [Compound 21, 3-Amino-4-(4-nitrophenylamino)-1H-pyrazolo[4,3-c]quinoline] | 303 to 305 °C |  |  |  | 
6 | Nc1n[nH]c2c1c(Nc1ccc(C(=O)O)cc1)nc1ccccc12 (as salt: salt) [Compound 22, 4-(3-Amino-1H-pyrazolo[4,3-c]quinolin-4-ylamino)benzoic acid] | 362 to 364 °C |  |  |  | 
7 | CC(=O)c1ccc(Nc2nc3ccccc3c3[nH]nc(N)c23)cc1 (as salt: salt) [Compound 23, 3-Amino-4-(4-acetylphenylamino)-1H-pyrazolo[4,3-c]quinoline] | 249 to 251 °C |  |  |  | 
8 | Nc1n[nH]c2c1c(Nc1cccc(O)c1)nc1ccccc12 (as salt: salt) [Compound 24, 3-Amino-4-(3-hydroxyphenylamino)-1H-pyrazolo[4,3-c]quinoline] | 319 to 321 °C |  |  |  | 
9 | Cc1cccc(Nc2nc3ccccc3c3[nH]nc(N)c23)c1 (as salt: salt) [Compound 25, N^4-(m-Tolyl)-1H-pyrazolo[4,3-c]quinoline-3,4-diamine] | 281 to 282 °C |  |  |  | 
10 | Cc1cccc2c1nc(Nc1ccc(Cl)cc1)c1c(N)n[nH]c12 [Compound 6, N^4-(4-Chlorophenyl)-6-methyl-1H-pyrazolo[4,3-c]quinoline-3,4-diamine] | 249 to 250 °C | 78.5 ± 0.71 | 6 ± 1 |  | 
11 | Cc1ccc(Nc2nc3c(C)cccc3c3[nH]nc(N)c23)cc1 [Compound 7, 6-Methyl-N^4-(p-tolyl)-1H-pyrazolo[4,3-c]quinoline-3,4-diamine] | 270 to 271 °C | 74 ± 1 | 3 ± 1 |  | 
12 | Nc1n[nH]c2c1c(Nc1ccc(Cl)cc1)nc1cc(F)ccc12 [Compound 8, N^4-(4-Chlorophenyl)-7-fluoro-1H-pyrazolo[4,3-c]quinoline-3,4-diamine] | 254 °C (dec.) | 83.5 ± 0.71 | 4 ± 1 |  | 
13 | Cc1ccc(Nc2nc3cc(F)ccc3c3[nH]nc(N)c23)cc1 [Compound 9, 7-Fluoro-N^4-(p-tolyl)-1H-pyrazolo[4,3-c]quinoline-3,4-diamine] |  | 81.5 ± 0.71 | 4 ± 1 |  | 
14 | Nc1n[nH]c2c1c(Nc1ccc(Cl)cc1)nc1ccc(Cl)cc12 [Compound 10, 8-Chloro-N^4-(4-chlorophenyl)-1H-pyrazolo[4,3-c]quinoline-3,4-diamine] |  | 77 ± 1.41 | 3 ± 1 |  | 
15 | Cc1ccc(Nc2nc3ccc(Cl)cc3c3[nH]nc(N)c23)cc1 [Compound 11, 8-Chloro-N^4-(p-tolyl)-1H-pyrazolo[4,3-c]quinoline-3,4-diamine] |  | 80.5 ± 2.12 | 3 ± 1 |  | 
16 | Nc1n[nH]c2c1c(Nc1ccc(Cl)cc1)nc1ccc(Br)cc12 [Compound 12, 8-Bromo-N^4-(4-chlorophenyl)-1H-pyrazolo[4,3-c]quinoline-3,4-diamine] | 264 °C (dec.) | 79.3 ± 2.63 | 5 ± 1 |  | 
17 | Cc1ccc(Nc2nc3ccc(Br)cc3c3[nH]nc(N)c23)cc1 [Compound 13, S-Bromo-N^4-(p-tolyl)-1H-pyrazolo[4,3-c]quinoline-3,4-diamine] |  |  |  | 80.21 ± 2.14 | 4 ± 1

Row | Compound | melting point | remaining activity at 10 µM [1] [%] | remaining activity at 10 µM [2] [%] | Percent activity of human liver-glucuronidase at 10 μM (%) [1] [%] | Percent activity of E. coli-glucuronidase at 10 μM (%) ([2]; 10 μM, purified recombinant eβG, pNPG, means ± S.D. of at least three separate experiments)
18 | Nc1n[nH]c2c1c(Nc1ccccc1)nc1ccccc12 [Compound 14, 3-Amino-4-anilino-1H-pyrazolo[4,3-c]quinoline] | 256 to 258 °C | 105.5 ± 0.71 | 4 ± 1 |  | 
19 | Nc1n[nH]c2c1c(Nc1ccc(O)cc1)nc1ccccc12 [Compound 15, 3-Amino-4-(4-hydroxyphenylamino)-1H-pyrazolo[4,3-c]quinoline] | 347 to 349 °C | 95 ± 4.24 | 7 ± 1 |  | 
20 | Nc1ccc(Nc2nc3ccccc3c3[nH]nc(N)c23)cc1 [Compound 16, 3-Amino-4-(4-aminophenylamino)-1H-pyrazolo[4,3-c]quinoline] | 355 to 356 °C | 82.5 ± 3.54 | 8 ± 1 |  | 
21 | Nc1n[nH]c2c1c(Nc1ccc(C(F)(F)F)cc1)nc1ccccc12 [Compound 18, 3-Amino-4-(4-trifluoromethylphenylamino)-1H-pyrazolo[4,3-c]quinoline] | 251 to 252 °C | 106 ± 2.83 | 4.5 ± 0.71 |  | 
22 | COc1ccc(Nc2nc3ccccc3c3[nH]nc(N)c23)cc1 [Compound 19, 3-Amino-4-(4-methoxyphenylamino)-1H-pyrazolo[4,3-c]quinoline] | 228 to 230 °C | 102 ± 2.12 | 3 ± 1 |  | 
23 | CSc1ccc(Nc2nc3ccccc3c3[nH]nc(N)c23)cc1 [Compound 20, 3-Amino-4-(4-methylthiophenylamino)-1H-pyrazolo[4,3-c]quinoline] |  | 108 ± 3.54 | 5 ± 1.41 |  | 
24 | Nc1n[nH]c2c1c(Nc1ccc([N+](=O)[O-])cc1)nc1ccccc12 [Compound 21, 3-Amino-4-(4-nitrophenylamino)-1H-pyrazolo[4,3-c]quinoline] |  | 90.86 ± 0.32 | 46.5 ± 4.95 |  | 
25 | Nc1n[nH]c2c1c(Nc1ccc(C(=O)O)cc1)nc1ccccc12 [Compound 22, 4-(3-Amino-1H-pyrazolo[4,3-c]quinolin-4-ylamino)benzoic acid] |  | 95 ± 4.24 | 15.5 ± 1.71 |  | 
26 | CC(=O)c1ccc(Nc2nc3ccccc3c3[nH]nc(N)c23)cc1 [Compound 23, 3-Amino-4-(4-acetylphenylamino)-1H-pyrazolo[4,3-c]quinoline] |  | 104 ± 1.41 | 3 ± 1 |  | 
27 | Nc1n[nH]c2c1c(Nc1cccc(O)c1)nc1ccccc12 [Compound 24, 3-Amino-4-(3-hydroxyphenylamino)-1H-pyrazolo[4,3-c]quinoline] |  | 105 ± 1.41 | 13.5 ± 0.71 |  | 
28 | Cc1cccc(Nc2nc3ccccc3c3[nH]nc(N)c23)c1 [Compound 25, N^4-(m-Tolyl)-1H-pyrazolo[4,3-c]quinoline-3,4-diamine] |  | 102 ± 2.08 | 69.9 ± 0.02 |  | 
29 | Nc1n[nH]c2c1c(Nc1cccc(Cl)c1)nc1ccccc12 [Compound 26, N^4-(3-Chlorophenyl)-1H-pyrazolo[4,3-c]quinoline-3,4-diamine] | 227 to 229 °C | 97.78 ± 0.01 | 14.9 ± 2.31 |  | 
30 | COc1cccc(Nc2nc3ccccc3c3[nH]nc(N)c23)c1 [Compound 27, 3-Amino-4-(3-methoxyphenylamino)-1H-pyrazolo[4,3-c]quinoline] | 184 to 186 °C | 107 ± 1.41 | 8 ± 1.41 |  | 
31 | CC(=O)c1cccc(Nc2nc3ccccc3c3[nH]nc(N)c23)c1 [Compound 28, 3-Amino-4-(3-acetylphenylamino)-1H-pyrazolo[4,3-c]quinoline] | > 380 °C | 93 ± 2.83 | 91 ± 1 |  | 
32 | O=C(Nc1ccccc1)Nc1n[nH]c2c1c(=O)[nH]c1ccccc12 [Compound 34, 1-(4-oxo-4,5-dihydro-1H-pyrazolo[4,3-c]quinolin-3-yl)-3-phenylurea] |  | 82 ± 1.41 | 86 ± 1 |  | 
33 | CCOc1ccc(NC(=S)N(CCO)Cc2cc3cc(C)cc(C)c3[nH]c2=O)cc1 [βG-Inh, 1-((6,8-Dimethyl-2-oxo-1,2-dihydroquinolin-3-yl)methyl)-3-(4-ethoxyphenyl)-1-(2-hydroxyethyl) thiourea, reference compound] |  |  | 3 ± 1 |  | 
